Measurements published in PMC11212559 (Emerging Microbes & Infections, 2024).

Biological target: E1CTD-E12 complex (Monkeypox virus Zaire-96-I-16, UniProt Q8V4Y7)
Test: biochemical

## C[S+](CC[C@H](N)C(=O)O)C[C@H]1O[C@@H](n2cnc3c(N)ncnc32)[C@H](O)[C@@H]1O (stereo partly shown) [SAM]
  Kd: 3.87 µM
